In PubChem BioAssay (NCI):
“And” between values parts separate entries of the source, which are not always exact repeats. Equal entries are not always repeated.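 Protocol summary: plate cells (96-well), add compound at 5 concentrations, incubate 48 h, interpolate endpoints linearly. The concentration for 50% growth inhibition is given as GI50. TGI: concentration producing complete growth inhibition.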

Experiments:
Test in all cases: inhibition of tumour cell growth, NCI panel, 48 h
[1] = tested on: OVCAR-3 ovarian
[2] = tested on: RXF 393 renal
[3] = tested on: HOP-92 NSCLC
[4] = tested on: HCT-15 colon
[5] = tested on: UO-31 renal
[6] = tested on: TK-10 renal
[7] = tested on: RPMI-8226 leukemia
[8] = tested on: SF-268 CNS
[9] = tested on: DU-145 prostate
[10] = tested on: HS 578T breast

Compound	GI50 [1]	TGI [1]	GI50 [2]	TGI [2]	GI50 [3]	TGI [3]	GI50 [4]	TGI [4]	GI50 [5]	TGI [5]	GI50 [6]	TGI [6]	GI50 [7]	TGI [7]	GI50 [8]	TGI [8]	GI50 [9]	TGI [9]	GI50 [10]	TGI [10]
COc1ccc(C2NC(=S)NC3=C2CCOc2c3ccc3ccccc23)cc1 (stereo not drawn)	51.5 µM	> 100 µM	1.57 µM	48 µM	77.1 µM	> 100 µM	21.4 µM	> 100 µM	98.3 µM	> 100 µM	> 100 µM	> 100 µM	12.8 µM	> 100 µM	6.73 µM	> 100 µM	> 100 µM	> 100 µM	47.4 µM	> 100 µM
Cn1c(=O)c2c(nc(N/N=C/c3ccccc3C(=O)O)n2C)n(C)c1=O	–	> 100 µM	–	> 100 µM	–	> 100 µM	–	> 100 µM	–	> 100 µM	–	> 100 µM	–	> 100 µM	–	> 100 µM	–	> 100 µM	–	> 100 µM
COc1ccc(C2=Nn3c(nnc3-n3nc(C)cc3C)SC2)cc1	0.0346 µM	0.114 µM	0.0599 µM	> 100 µM	0.0245 µM	0.836 µM	0.05 µM	> 100 µM	0.212 µM	> 100 µM	0.227 µM	> 100 µM	0.0605 µM	> 70.3 µM	0.0806 µM	> 100 µM	0.04 µM	1.25 µM	–	> 100 µM
O=C(O)c1ccccc1NCn1c(=S)sc2ccccc21	–	> 100 µM	–	> 100 µM	–	> 100 µM	–	> 100 µM	–	> 100 µM	–	> 100 µM	–	95.4 µM	–	> 100 µM	–	> 100 µM	–	> 100 µM
NC(=O)/C(=C/n1cnc(-c2cc(C(F)(F)F)cc(C(F)(F)F)c2)n1)c1cncnc1	0.154 µM	3.32 µM	0.0706 µM	0.573 µM	0.159 µM	8.23 µM	0.286 µM	6.93 µM	0.426 µM	12.8 µM	0.986 µM	13.5 µM	0.102 µM	9.53 µM	0.516 µM	11.9 µM	0.625 µM	12.2 µM	0.793 µM	13.5 µM
O=C1Nc2ccc3c(c2/C1=C\c1cc2c(cc1Br)OCO2)OCO3	0.217 µM	0.589 µM	0.901 µM	3.78 µM	1.16 µM	4.37 µM	0.515 µM	> 100 µM	0.191 µM	2.13 µM	1.52 µM	3.84 µM	0.27 µM	0.801 µM	0.524 µM	3.28 µM	0.49 µM	2.11 µM	0.376 µM	2.11 µM
COc1ccccc1C(=O)N(Cc1ccccc1)c1ccc(Cl)c(C(=O)OC(C)C)c1	–	> 100 µM	–	62.1 µM	–	> 45.5 µM	–	> 100 µM	–	54.1 µM	–	> 100 µM	–	29 µM	–	> 100 µM	–	> 100 µM	–	> 100 µM
COc1ccc(-c2csc(Nc3cccc(-c4csc(C)n4)c3)n2)cc1	0.489 µM	> 10.8 µM	1.87 µM	> 14.9 µM	24.7 µM	> 50 µM	0.226 µM	> 47.7 µM	2.54 µM	> 50 µM	5.04 µM	> 50 µM	2.52 µM	> 50 µM	2.48 µM	> 50 µM	2.14 µM	> 50 µM	4.68 µM	> 37.9 µM
C[C@@H]1CCc2ncc(F)cc2[C@H]2CCCN2c2ccn3ncc(c3n2)C(=O)N1	88.6 µM	> 100 µM	16.7 µM	61 µM	47.8 µM	> 100 µM	77.1 µM	> 100 µM	29.8 µM	> 100 µM	81.7 µM	> 100 µM	94.8 µM	> 100 µM	> 100 µM	> 100 µM	73.7 µM	> 100 µM	24.5 µM	> 100 µM
CCn1c(-c2nonc2N)nc2cnc(Oc3cccc(NC(=O)c4ccc(N(C)C)cc4)c3)cc21	> 25 µM	> 25 µM	16.9 µM	> 25 µM	0.00447 µM	> 25 µM	8.55 µM	> 25 µM	0.0235 µM	> 18.8 µM	0.549 µM	> 21 µM	> 25 µM	> 25 µM	2.48 µM	> 25 µM	> 21.7 µM	> 25 µM	0.0623 µM	> 25 µM
CC(O)[C@H](NC(=O)N[C@@H](CC(N)=O)c1nc(N2CCNCC2)no1)C(=O)O (stereo partly drawn)	> 100 µM	> 100 µM	> 100 µM	> 100 µM	> 100 µM	> 100 µM	> 100 µM	> 100 µM	> 100 µM	> 100 µM	> 100 µM	> 100 µM	> 100 µM	> 100 µM	> 100 µM	> 100 µM	> 100 µM	> 100 µM	> 100 µM	> 100 µM
OCC(O)C(O)C(O)C(O)c1nnc2c(-c3ccccc3)nc3ccccc3n12 (stereo not drawn)	> 100 µM	> 100 µM	56.8 µM	> 100 µM	> 100 µM	> 100 µM	53.1 µM	> 100 µM	> 100 µM	> 100 µM	29.2 µM	> 100 µM	67.2 µM	> 100 µM	> 100 µM	> 100 µM	> 100 µM	> 100 µM	57.9 µM	> 100 µM
COCC(C(=O)OC1C/C=C/C=C/C(=O)OC(C(C)C(O)C(C)CCC(OC(=O)C(C)N(C)C)C(C)C(OC(C)=O)C(C)/C=C/N(C)C=O)C/C=C/C(OC)CC(C)C/C=C(\C)C(OC)CCC(C)C(O)C1C)N(C)C (stereo not drawn)	< 0.0001 µM	0.00191 µM	< 0.0001 µM	0.0177 µM	0.00145 µM	0.024 µM	< 0.0001 µM	0.00194 µM	0.00104 µM	0.169 µM	0.0158 µM	0.0877 µM	< 0.0001 µM	0.0077 µM	< 0.0001 µM	0.00161 µM	< 0.0001 µM	0.000156 µM	< 0.0001 µM	< 0.0001 µM
NC1=NCN(C2OC(CO)C(O)C2O)C(=O)N1 (stereo not drawn)	–	361 µM	–	218 µM	–	1990 µM	–	530 µM	–	872 µM	–	1730 µM	–	159 µM	–	2460 µM	–	1330 µM	–	734 µM
CC(=O)OCC1OC(n2c3c(cc(C#N)c2=S)CCCC3)C(OC(C)=O)C(OC(C)=O)C1OC(C)=O (stereo not drawn)	45.2 µM and > 100 µM	> 100 µM	> 100 µM and 20.4 µM	> 100 µM and 63.7 µM	> 100 µM and 32.4 µM	> 100 µM	–	> 100 µM	–	> 100 µM	–	> 100 µM	32.6 µM and > 100 µM	> 100 µM	> 100 µM and 22.9 µM	> 100 µM	–	> 100 µM	> 100 µM and 25.5 µM	> 100 µM
CCOc1ccc2cc(-c3nn(CC4CCNCC4)c4ncnc(N)c34)ccc2c1	18.1 µM	43.8 µM	3.96 µM	17.1 µM	4.96 µM	24.9 µM	13.5 µM	32.1 µM	5.61 µM	20.7 µM	16.8 µM	38.8 µM	14 µM	34.6 µM	12 µM	28.2 µM	19.1 µM	55.6 µM	10.2 µM	43.4 µM
CCOC(=O)c1c(CN2CCN(C)CC2)nc2ccc(Cl)cc2c1-c1ccccc1	6.5 µM	19.6 µM	5.33 µM	15.4 µM	6.64 µM	22.3 µM	5.42 µM	20.9 µM	5.98 µM	19.5 µM	5.11 µM	13.6 µM	2.98 µM	12.7 µM	10.2 µM	23.5 µM	13.7 µM	26.7 µM	4.69 µM	23.1 µM
CCOC(=O)/C(=C\c1ccc2ccccc2c1)P(=O)(OCC)OCC	1.95 µM	4.07 µM	1.82 µM	3.46 µM	2.44 µM	5.31 µM	1.7 µM	4.45 µM	1.72 µM	4.4 µM	2.85 µM	8.97 µM	2.27 µM	6.54 µM	3.28 µM	14.3 µM	2.63 µM	9.32 µM	7.17 µM	75.8 µM
COc1cc2c3cc1Oc1c(OC)c(OC)cc4c1C(Cc1ccc(O)c(c1)Oc1ccc(cc1)CC3N(C)CC2)N(C)CC4 (stereo not drawn)	–	39.1 µM	2.18 µM	14.8 µM	17.2 µM	94.2 µM and 41.1 µM	4.82 µM	37.6 µM and > 100 µM	13.9 µM	35.7 µM and 31.9 µM	20.8 µM	> 100 µM and 39.3 µM	11.8 µM	40.1 µM	15.2 µM	64.2 µM and 51.8 µM	18.2 µM	> 100 µM and 84.4 µM	15.3 µM	55.3 µM and 43.4 µM
CCOC1Oc2ccc(C)cc2C(=O)/C1=C\Nc1ccc(S(N)(=O)=O)cc1 (stereo not drawn)	12.5 µM	36.5 µM	8.92 µM	21.3 µM	8.9 µM	29.6 µM	12.5 µM	> 50 µM	13.7 µM	> 50 µM	15.7 µM	> 50 µM	6.21 µM	25.2 µM	16.1 µM	> 50 µM	12.9 µM	35.7 µM	14.5 µM	42.6 µM
COc1ccccc1NC(=O)C1=C(C)NC(C)=C(C(=O)Nc2ccccc2OC)C1c1ccco1	–	9.02 µM	–	10.6 µM	–	24.2 µM	–	> 100 µM	–	> 83.5 µM	–	> 79.7 µM	–	76.1 µM	–	> 97.3 µM	–	> 100 µM	–	9 µM
Nn1c(-c2ccc(Cl)cc2)nc2c(-c3ccc(Cl)cc3)nc3ccc(Cl)cc3c2c1=O	2.7 µM	8.68 µM	11.8 µM	30.9 µM	13.6 µM	31.6 µM	> 100 µM	> 100 µM	16.9 µM	> 100 µM	22.4 µM	58.4 µM	4.14 µM	26.3 µM	5.18 µM	72.3 µM	4.96 µM	> 100 µM	12.1 µM	85 µM
CC1OC(OC2C(O)C(O)C(O)C(O)C2O)C(N)CC1N=C(N)C(=O)O (stereo not drawn)	–	> 100 µM	–	> 100 µM	–	> 100 µM	–	> 100 µM	–	> 100 µM	–	> 100 µM	–	> 100 µM	–	> 100 µM	–	> 100 µM	–	> 100 µM
C=CC(=O)Nc1cc2c(Nc3ccc(F)c(Cl)c3)ncnc2cc1C#CC(C)(C)N1CCN(C)CC1	1.13 µM	2.85 µM	0.837 µM	2.15 µM	0.29 µM	1.78 µM	1.68 µM	5.11 µM	0.244 µM	4.4 µM	0.0522 µM	2.03 µM	1.77 µM	5.17 µM	1.84 µM	5.51 µM	1.11 µM	4.86 µM	2.28 µM	8.47 µM
Clc1ccc(CN2CCCN(Cc3ccc(Cl)cc3)C2c2cc3ccccc3c3ccccc23)cc1	–	> 100 µM	–	> 100 µM	–	> 100 µM	–	> 100 µM	–	> 100 µM	–	> 100 µM	–	> 100 µM	–	> 100 µM	–	> 100 µM	–	> 100 µM
NCCCN=c1ccc2c3c1c(O)c1c(O)ccc(=O)c1c3[nH]n2CCNCCO	4.18 µM	17.4 µM and 22.5 µM	3.03 µM and 1.21 µM	8.38 µM and 5.39 µM	1.84 µM and 0.409 µM	10.3 µM and 2.34 µM	1.4 µM	25 µM and 112 µM	3.78 µM and 14.2 µM	24.5 µM and 98.1 µM	6.59 µM	21.3 µM and 77.7 µM	2.93 µM	9.94 µM and 22.3 µM	–	6.51 µM	1 µM	5.57 µM and 8.3 µM	1.77 µM	4.8 µM
CCOC(=O)[C@@H]1CSC(CC)=C(C(=O)O)N1	> 100 µM	> 100 µM	> 100 µM	> 100 µM	> 100 µM	> 100 µM	> 100 µM	> 100 µM	> 100 µM	> 100 µM	> 100 µM	> 100 µM	> 100 µM	> 100 µM	> 100 µM	> 100 µM	> 100 µM	> 100 µM	> 100 µM	> 100 µM
